# Test results taken from patent US8192962B2, “Processes for detecting toxic substances” (Daikin Industries, Ltd., priority 2001, dated 2012).
# Test system: DNA repair protein genes
# Assay: DNA chip mRNA expression in yeast, DNA repair protein genes (Table 3)
# Type: cell-based, Saccharomyces cerevisiae S288C
# Conditions: incubated two hours, concentrations as in the 1st table
# Summary of the method: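 Cells were grown at 25° C. in YPD, treated at logarithmic phase for 2 h with a chemical at a concentration inhibiting growth but not causing death, and compared with untreated cultures. Labeled cDNA was hybridized to a DNA chip carrying all yeast genes, and the expression ratio was taken from scanner fluorescence.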
structure (smiles),measurement,setting,value
"Cl[C@H]1[C@H](Cl)[C@@H](Cl)[C@@H](Cl)[C@H](Cl)[C@H]1Cl [(7), γ-hexachlorocyclohexane]",The level of expressed mRNA in the presence of chemical substance/The level of expressed mRNA in the absence of chemical substance,yeast gene YAL015C,1.2
same,The level of expressed mRNA in the presence of chemical substance/The level of expressed mRNA in the absence of chemical substance,yeast gene YAR007C,0.8
same,The level of expressed mRNA in the presence of chemical substance/The level of expressed mRNA in the absence of chemical substance,yeast gene YBL019W,1.2
same,The level of expressed mRNA in the presence of chemical substance/The level of expressed mRNA in the absence of chemical substance,yeast gene YBR073W,0.6
same,The level of expressed mRNA in the presence of chemical substance/The level of expressed mRNA in the absence of chemical substance,yeast gene YBR272C,1.9
same,The level of expressed mRNA in the presence of chemical substance/The level of expressed mRNA in the absence of chemical substance,yeast gene YCR014C,1.1
same,The level of expressed mRNA in the presence of chemical substance/The level of expressed mRNA in the absence of chemical substance,yeast gene YDL017W,1.1
same,The level of expressed mRNA in the presence of chemical substance/The level of expressed mRNA in the absence of chemical substance,yeast gene YDL059C,1.1
same,The level of expressed mRNA in the presence of chemical substance/The level of expressed mRNA in the absence of chemical substance,yeast gene YDL200C,1.7
same,The level of expressed mRNA in the presence of chemical substance/The level of expressed mRNA in the absence of chemical substance,yeast gene YDR054C,1.1
same,The level of expressed mRNA in the presence of chemical substance/The level of expressed mRNA in the absence of chemical substance,yeast gene YDR369C,0.4
same,The level of expressed mRNA in the presence of chemical substance/The level of expressed mRNA in the absence of chemical substance,yeast gene YEL019C,1.2
same,The level of expressed mRNA in the presence of chemical substance/The level of expressed mRNA in the absence of chemical substance,yeast gene YEL037C,0.8
same,The level of expressed mRNA in the presence of chemical substance/The level of expressed mRNA in the absence of chemical substance,yeast gene YER162C,0.5
same,The level of expressed mRNA in the presence of chemical substance/The level of expressed mRNA in the absence of chemical substance,yeast gene YFL014W,5.5
same,The level of expressed mRNA in the presence of chemical substance/The level of expressed mRNA in the absence of chemical substance,yeast gene YGL058W,0.0
same,The level of expressed mRNA in the presence of chemical substance/The level of expressed mRNA in the absence of chemical substance,yeast gene YGL091C,1.3
same,The level of expressed mRNA in the presence of chemical substance/The level of expressed mRNA in the absence of chemical substance,yeast gene YGL127C,1.0
same,The level of expressed mRNA in the presence of chemical substance/The level of expressed mRNA in the absence of chemical substance,yeast gene YGL163C,1.0
same,The level of expressed mRNA in the presence of chemical substance/The level of expressed mRNA in the absence of chemical substance,yeast gene YGL249W,1.2
same,The level of expressed mRNA in the presence of chemical substance/The level of expressed mRNA in the absence of chemical substance,yeast gene YGR180C,0.5
same,The level of expressed mRNA in the presence of chemical substance/The level of expressed mRNA in the absence of chemical substance,yeast gene YGR231C,2.1
same,The level of expressed mRNA in the presence of chemical substance/The level of expressed mRNA in the absence of chemical substance,yeast gene YGR258C,1.5
same,The level of expressed mRNA in the presence of chemical substance/The level of expressed mRNA in the absence of chemical substance,yeast gene YHR164C,0.8
same,The level of expressed mRNA in the presence of chemical substance/The level of expressed mRNA in the absence of chemical substance,yeast gene YIL036W,1.4
same,The level of expressed mRNA in the presence of chemical substance/The level of expressed mRNA in the absence of chemical substance,yeast gene YIL072W,1.7
same,The level of expressed mRNA in the presence of chemical substance/The level of expressed mRNA in the absence of chemical substance,yeast gene YIL143C,0.8
same,The level of expressed mRNA in the presence of chemical substance/The level of expressed mRNA in the absence of chemical substance,yeast gene YIL153W,1.6
same,The level of expressed mRNA in the presence of chemical substance/The level of expressed mRNA in the absence of chemical substance,yeast gene YIR002C,1.3
same,The level of expressed mRNA in the presence of chemical substance/The level of expressed mRNA in the absence of chemical substance,yeast gene YJL026W,0.5
same,The level of expressed mRNA in the presence of chemical substance/The level of expressed mRNA in the absence of chemical substance,yeast gene YJR046W,0.9
same,The level of expressed mRNA in the presence of chemical substance/The level of expressed mRNA in the absence of chemical substance,yeast gene YJR052W,1.2
same,The level of expressed mRNA in the presence of chemical substance/The level of expressed mRNA in the absence of chemical substance,yeast gene YKL145W,1.6
same,The level of expressed mRNA in the presence of chemical substance/The level of expressed mRNA in the absence of chemical substance,yeast gene YLR103C,1.3
same,The level of expressed mRNA in the presence of chemical substance/The level of expressed mRNA in the absence of chemical substance,yeast gene YLR233C,0.8
same,The level of expressed mRNA in the presence of chemical substance/The level of expressed mRNA in the absence of chemical substance,yeast gene YLR288C,1.3
same,The level of expressed mRNA in the presence of chemical substance/The level of expressed mRNA in the absence of chemical substance,yeast gene YML032C,0.8
same,The level of expressed mRNA in the presence of chemical substance/The level of expressed mRNA in the absence of chemical substance,yeast gene YML058W,0.6
same,The level of expressed mRNA in the presence of chemical substance/The level of expressed mRNA in the absence of chemical substance,yeast gene YMR035W,2.3
same,The level of expressed mRNA in the presence of chemical substance/The level of expressed mRNA in the absence of chemical substance,yeast gene YMR072W,1.4
same,The level of expressed mRNA in the presence of chemical substance/The level of expressed mRNA in the absence of chemical substance,yeast gene YMR096W,1.9
same,The level of expressed mRNA in the presence of chemical substance/The level of expressed mRNA in the absence of chemical substance,yeast gene YMR284W,0.8
same,The level of expressed mRNA in the presence of chemical substance/The level of expressed mRNA in the absence of chemical substance,yeast gene YNL213C,1.4
same,The level of expressed mRNA in the presence of chemical substance/The level of expressed mRNA in the absence of chemical substance,yeast gene YNL250W,1.2
same,The level of expressed mRNA in the presence of chemical substance/The level of expressed mRNA in the absence of chemical substance,yeast gene YNL261W,1.0
same,The level of expressed mRNA in the presence of chemical substance/The level of expressed mRNA in the absence of chemical substance,yeast gene YNL312W,0.5
same,The level of expressed mRNA in the presence of chemical substance/The level of expressed mRNA in the absence of chemical substance,yeast gene YOL043C,1.0
same,The level of expressed mRNA in the presence of chemical substance/The level of expressed mRNA in the absence of chemical substance,yeast gene YOR005C,1.4
same,The level of expressed mRNA in the presence of chemical substance/The level of expressed mRNA in the absence of chemical substance,yeast gene YOR386W,1.8
same,The level of expressed mRNA in the presence of chemical substance/The level of expressed mRNA in the absence of chemical substance,yeast gene YPL022W,0.8
same,The level of expressed mRNA in the presence of chemical substance/The level of expressed mRNA in the absence of chemical substance,yeast gene YPL164C,0.9
same,The level of expressed mRNA in the presence of chemical substance/The level of expressed mRNA in the absence of chemical substance,yeast gene YPL194W,1.5
same,The level of expressed mRNA in the presence of chemical substance/The level of expressed mRNA in the absence of chemical substance,yeast gene YPR025C,1.4
